Like-named read-outs stand apart in the source and are kept apart here.

In this test the target is T1, HCV NS3-4A protease (Hepatitis C virus genotype 1a, UniProt P27958).
T1 construct: HCV NS3-4A protease
Briefly: HCV NS3-4A protease assay in vitro (FRET-S substrate). Type of test: biochemical. The procedure:
HCV NS3-4A Protease Assay In Vitro.
The assay was conducted in Buffer A containing 30 mM NaCl, 5 mM CaCl2, 10 mM DTT, 50 mM Tris (pH7.8), using the Ac-Asp-Glu-Asp(EDANS)-Glu-Glu-Abu-ψ-[COO]-Ala-Ser-Lys (DABCYL)-NH2 (FRET-S) fluorescent peptide (AnaSpec, USA) as substrate. Briefly, 140 μL buffer A, 20 μL compounds dissolved in buffer A with different concentration and 20 μL HCV NS3-4A protease diluted in buffer A were added into 96-well plate respectively and mixed well. The reaction was initiate with adding 20 μL of FRET-S. Reactions were continuously monitored at 37° C. using a BMG Polarstar Galaxy (MTX Lab Systems, Inc. USA), with excitation and emission filters of 355 nm and 520 nm, respectively. The 50% inhibitory concentration (IC50) was calculated with Reed & Muench methods.

The mark [1] stands for this setting: HCV NS3-4A protease inhibition, 37° C., class symbols, read-out: NS3-NS4A IC50.

T1 sequence (P27958 1027-1657): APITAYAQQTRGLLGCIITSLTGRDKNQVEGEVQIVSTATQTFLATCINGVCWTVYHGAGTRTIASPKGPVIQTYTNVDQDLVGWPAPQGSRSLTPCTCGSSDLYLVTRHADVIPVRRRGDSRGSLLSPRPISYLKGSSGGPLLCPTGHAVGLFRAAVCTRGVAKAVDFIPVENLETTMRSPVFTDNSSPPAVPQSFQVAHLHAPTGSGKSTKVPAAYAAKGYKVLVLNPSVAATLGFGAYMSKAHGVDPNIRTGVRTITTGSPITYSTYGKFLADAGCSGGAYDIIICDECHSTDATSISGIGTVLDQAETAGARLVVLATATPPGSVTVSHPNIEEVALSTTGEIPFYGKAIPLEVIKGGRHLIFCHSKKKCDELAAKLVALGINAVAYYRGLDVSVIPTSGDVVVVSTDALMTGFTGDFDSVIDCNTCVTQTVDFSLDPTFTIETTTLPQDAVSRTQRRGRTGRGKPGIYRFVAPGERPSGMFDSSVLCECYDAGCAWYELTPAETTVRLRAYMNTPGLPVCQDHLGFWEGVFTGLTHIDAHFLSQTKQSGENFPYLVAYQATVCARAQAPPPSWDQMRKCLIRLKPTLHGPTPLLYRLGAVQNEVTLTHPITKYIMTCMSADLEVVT
T1 sequence (P27958 1658-1711): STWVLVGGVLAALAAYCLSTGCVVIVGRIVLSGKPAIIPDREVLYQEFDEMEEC

On to `CC(C)(C)OC(=O)N[C@H]1CCCCC/C=C\[C@@H]2C[C@@]2(C(=O)O)NC(=O)[C@@H]2C[C@@H](OC(=O)N3Cc4ccc5c(c4C3)OCO5)CN2C1=O` [Compound 11a], for which the IC50 under setting [1] was greater than 200 nM. In the case of `CC[C@H]1C[C@@]1(NC(=O)C1C[C@@H](OC(=O)N2Cc3cc4c(cc3C2)OCO4)CN1C(=O)[C@@H](NC(=O)[C@@H](NS(=O)(=O)c1cccc2ccccc12)C1CCCCC1)C(C)(C)C)C(=O)NS(=O)(=O)C1CC1` (stereo partly shown) [Compound 30p], the half-inhibitory concentration (IC50) under setting [1] is less than 30 nM. As for `C=C[C@H]1C[C@@]1(NC(=O)C1C[C@@H](OC(=O)N2Cc3cc4c(cc3C2)OCO4)CN1C(=O)[C@@H](NC(=O)OC(C)(C)C)C(C)(C)C)C(=O)NS(=O)(=O)C1CC1` (stereo partly shown) [Compound 30af], the 50% inhibitory concentration (IC50) under setting [1] was less than 30 nM. Take `O=C1N[C@]2(C(=O)NS(=O)(=O)C3CC3)C[C@H]2/C=C\CCCCN(C2CC2)C(=O)C2C[C@H](OC(=O)N3Cc4cc5c(cc4C3)OCO5)C[C@@H]12` (stereo partly shown) [Compound 21a]: the IC50 under setting [1] lay in the range of 30 to 200 nM. With `CCC[C@H](NC(=O)C1C[C@@H](OC(=O)N2Cc3ccc4c(c3C2)OCCO4)CN1C(=O)[C@@H](NC(=O)[C@@H](NC(=O)c1cnccn1)C1CCCCC1)C(C)(C)C)C(=O)C(=O)NC1CC1` (stereo partly shown) [Compound 33d], the IC50 was greater than 200 nM. Turning to `CC(C)(C)OC(=O)N[C@H]1CCCCC/C=C\[C@@H]2C[C@@]2(C(=O)NS(=O)(=O)C2CC2)NC(=O)[C@@H]2C[C@@H](OC(=O)N3Cc4cc5c(cc4C3)OCCCO5)CN2C1=O` [Compound 12p], the IC50 under setting [1] is less than 30 nM. As for `CC(C)(C)OC(=O)N([C@H]1CCCCC/C=C\[C@@H]2C[C@@]2(C(=O)NS(=O)(=O)C2CC2)NC(=O)[C@@H]2C[C@@H](OC(=O)N3Cc4ccc5c(c4C3)OCO5)CN2C1=O)S(C)(=O)=O` [Compound 12t], the IC50 under setting [1] was less than 30 nM. For `O=C1N[C@]2(C(=O)NS(=O)(=O)C3CC3)C[C@H]2/C=C\CCCCC[C@H](NS(=O)(=O)c2ccc(Cl)cc2)C(=O)N2C[C@H](OC(=O)N3Cc4cc5c(cc4C3)OCO5)C[C@@H]12` [Compound 16a], the IC50 under setting [1] was less than 30 nM. `C=C[C@H]1C[C@@]1(NC(=O)C1C[C@@H](OC(=O)N2Cc3cc4c(cc3C2)OCO4)CN1C(=O)[C@@H](NC(=O)NC(C)(C)C)C(C)(C)C)C(=O)NS(=O)(=O)C1CC1` (stereo partly shown) [Compound 30ar]: the IC50 under setting [1] is less than 30 nM. Take `CC[C@H]1C[C@@]1(NC(=O)C1C[C@@H](OC(=O)N2Cc3cc4c(cc3C2)OCO4)CN1C(=O)[C@@H](NC(=O)[C@@H](NC(=O)NC(C)(C)C)C1CCCCC1)C(C)(C)C)C(=O)NS(=O)(=O)C1CC1` (stereo partly shown) [Compound 30ac]: the IC50 was less than 30 nM.

For the compound `CC[C@H]1C[C@@]1(NC(=O)C1C[C@@H](OC(=O)N2Cc3cc4c(cc3C2)OCCCO4)CN1C(=O)[C@@H](NC(=O)[C@@H](NC(=O)OC(C)(C)C)C1CCCCC1)C(C)(C)C)C(=O)NS(=O)(=O)C1CC1` (stereo partly shown) [Compound 30ad], the IC50 was in the range of 30 to 200 nM. For `O=C1N[C@]2(C(=O)NS(=O)(=O)C3CC3)C[C@H]2/C=C\CCCCC[C@H](Nc2ccccc2)C(=O)N2C[C@H](OC(=O)N3Cc4cc5c(cc4C3)OCO5)C[C@@H]12` [Compound 15a], under setting [1], the IC50 is less than 30 nM. Same read-out and setting: with `CC(C)(C)OC(=O)N[C@H]1CCCCC/C=C\[C@@H]2C[C@@]2(C(=O)NS(=O)(=O)C2CC2)NC(=O)[C@@H]2C[C@@H](OC(=O)N3Cc4cc5c(cc4C3)OCO5)CN2C1=O` [Compound 12d] the figure was less than 30 nM.

Turning to `C=C[C@H]1C[C@@]1(NC(=O)C1C[C@@H](OC(=O)N2Cc3cccc(F)c3C2)CN1C(=O)[C@@H](NC(=O)[C@@H](NC(=O)c1cnccn1)C1CCCCC1)C(C)(C)C)C(=O)NS(=O)(=O)C1CC1` (stereo partly shown) [Compound 30k], the IC50 is less than 30 nM. Turning to `CC[C@H]1C[C@@]1(NC(=O)C1C[C@@H](OC(=O)N2Cc3cc4c(cc3C2)OCO4)CN1C(=O)[C@@H](NC(=O)OC(C)(C)C)C(C)(C)C)C(=O)NS(=O)(=O)C1CC1` (stereo partly shown) [Compound 30ag], under setting [1], the IC50 was less than 30 nM. In the case of `CC[C@H]1C[C@@]1(NC(=O)C1C[C@@H](OC(=O)N2Cc3cc4c(cc3C2)OCO4)CN1C(=O)[C@@H](NC(=O)[C@@H](NC(=O)OCC1c2ccccc2-c2ccccc21)C1CCCCC1)C(C)(C)C)C(=O)NS(=O)(=O)C1CC1` (stereo partly shown) [Compound 30aa], the IC50 is less than 30 nM.

By IC50 is commonly meant the concentration that inhibits the measured activity by half.

For the origin of these results see US8815796B2, “Polyheterocyclic compounds highly potent as HCV inhibitors” (AB Pharma Ltd., priority 2010, dated 2014).
